Laboratory results from patent US20130121994A1, “TRIAZOLOPYRIDINE DERIVATIVES” (BAYER INTELLECTUAL PROPERTY GMBH, priority 2009, published 2013).

These compounds were tested against T1, human kinase Mps-1 (Homo sapiens, UniProt P33981) (assay: Mps-1 kinase assay (HTRF)).
T1 construct: N-terminally GST-tagged human full length recombinant Mps-1 kinase; GST (N); purchased Invitrogen, Karslruhe, Germany PV4071
T1 sequence (P33981 1-857): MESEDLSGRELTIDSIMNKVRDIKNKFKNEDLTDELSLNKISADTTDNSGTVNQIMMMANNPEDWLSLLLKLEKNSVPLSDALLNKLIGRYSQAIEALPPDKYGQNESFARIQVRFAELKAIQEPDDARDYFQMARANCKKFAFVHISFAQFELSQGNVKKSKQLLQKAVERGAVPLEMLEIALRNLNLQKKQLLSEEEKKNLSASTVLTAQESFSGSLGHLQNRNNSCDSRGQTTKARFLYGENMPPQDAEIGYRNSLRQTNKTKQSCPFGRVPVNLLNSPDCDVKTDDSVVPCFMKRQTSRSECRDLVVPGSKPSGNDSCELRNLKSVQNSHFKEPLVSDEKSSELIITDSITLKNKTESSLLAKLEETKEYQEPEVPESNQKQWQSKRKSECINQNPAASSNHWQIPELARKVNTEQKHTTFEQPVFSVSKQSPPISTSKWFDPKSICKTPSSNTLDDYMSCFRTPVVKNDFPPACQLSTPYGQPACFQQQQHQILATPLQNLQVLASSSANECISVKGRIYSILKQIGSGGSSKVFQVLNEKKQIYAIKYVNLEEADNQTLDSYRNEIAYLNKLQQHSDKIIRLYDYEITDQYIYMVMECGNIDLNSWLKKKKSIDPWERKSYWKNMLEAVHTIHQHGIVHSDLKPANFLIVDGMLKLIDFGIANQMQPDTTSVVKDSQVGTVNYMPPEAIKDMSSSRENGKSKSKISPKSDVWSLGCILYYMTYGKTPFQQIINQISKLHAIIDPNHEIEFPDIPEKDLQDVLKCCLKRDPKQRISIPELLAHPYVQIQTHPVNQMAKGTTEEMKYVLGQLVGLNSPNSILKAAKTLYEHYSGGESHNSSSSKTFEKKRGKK
Format: biochemical

| IC50 | SMILES |
| --- | --- |
| 9.81 nM | CC(C)(C)CCNC(=O)c1cccc(-c2ccc3nc(Nc4ccccc4C#N)nn3c2)c1 [Example 11.055, 3-{2-[(2-cyanophenyl)amino][1,2,4]triazolo[1,5-a]pyridin-6-yl}-N-(3,3-dimethylbutyl)benzamide] |
| 12.2 nM | C[C@H](NC(=O)c1cccc(-c2ccc3nc(Nc4ccccc4C#N)nn3c2)c1)C(C)(C)C [Example 11.057, 3-{2-[(2-cyanophenyl)amino][1,2,4]triazolo[1,5-a]pyridin-6-yl}-N-[(2S)-3,3-dimethylbutan-2-yl]benzamide] |
| 9.04 nM | COC(C)(C)CNC(=O)c1cccc(-c2ccc3nc(Nc4ccccc4C#N)nn3c2)c1 [Example 11.060, 3-{2-[(2-cyanophenyl)amino][1,2,4]triazolo[1,5-a]pyridin-6-yl}-N-(2-methoxy-2-methylpropyl)benzamide] |
| 13.9 nM | CC(C)(O)CNC(=O)c1cccc(-c2ccc3nc(Nc4ccccc4C#N)nn3c2)c1 [Example 11.062, 3-{2-[(2-cyanophenyl)amino][1,2,4]triazolo[1,5-a]pyridin-6-yl}-N-(2-hydroxy-2-methylpropyl)benzamide] |
| 26.5 nM | C[C@H](NC(=O)c1cccc(-c2ccc3nc(Nc4ccccc4C#N)nn3c2)c1)C(F)(F)F [Example 11.064, 3-{2-[(2-cyanophenyl)amino][1,2,4]triazolo[1,5-a]pyridin-6-yl}-N-[(2S)-1,1,1-trifluoropropan-2-yl]benzamide] |

More lines, now with the values behind:

| SMILES | IC50 |
| --- | --- |
| N#Cc1ccccc1Nc1nc2ccc(-c3cccc(C(=O)NCCF)c3)cn2n1 [Example 11.054, 3-{2-[(2-cyanophenyl)amino][1,2,4]triazolo[1,5-a]pyridin-6-yl}-N-(2-fluoroethyl)benzamide] | 6.13 nM |
| CC(C)(C)CNC(=O)c1cc(F)cc(-c2ccc3nc(Nc4ccccc4C#N)nn3c2)c1 [Example 11.056, 3-{2-[(2-cyanophenyl)amino][1,2,4]triazolo[1,5-a]pyridin-6-yl}-N-(2,2-dimethylpropyl)-5-fluorobenzamide] | 9.21 nM |
| CC(C)(C)CNC(=O)c1cccc(-c2ccc3nc(Nc4ccccc4C#N)nn3c2)c1F [Example 11.058, 3-{2-[(2-cyanophenyl)amino][1,2,4]triazolo[1,5-a]pyridin-6-yl}-N-(2,2-dimethylpropyl)-2-fluorobenzamide] | 12.8 nM |
| N#Cc1ccccc1Nc1nc2ccc(-c3cc(F)cc(C(=O)NCC(F)(F)F)c3)cn2n1 [Example 11.059, 3-{2-[(2-cyanophenyl)amino][1,2,4]triazolo[1,5-a]pyridin-6-yl}-5-fluoro-N-(2,2,2-trifluoroethyl)benzamide] | 12.6 nM |
| N#Cc1ccccc1Nc1nc2ccc(-c3cccc(C(=O)NCC(F)(F)F)c3F)cn2n1 [Example 11.061, 3-{2-[(2-cyanophenyl)amino][1,2,4]triazolo[1,5-a]pyridin-6-yl}-2-fluoro-N-(2,2,2-trifluoroethyl)benzamide] | 12.9 nM |
| N#Cc1ccccc1Nc1nc2ccc(-c3cccc(C(=O)NCC(F)(F)C(F)(F)F)c3F)cn2n1 [Example 11.063, 3-{2-[(2-cyanophenyl)amino][1,2,4]triazolo[1,5-a]pyridin-6-yl}-2-fluoro-N-(2,2,3,3,3-pentafluoropropyl)benzamide] | 17.3 nM |
| CC(C)(C)NC(=O)c1cccc(-c2ccc3nc(Nc4ccccc4C#N)nn3c2)c1F [Example 11.065, N-tert-butyl-3-{2-[(2-cyanophenyl)amino][1,2,4]triazolo[1,5-a]pyridin-6-yl}-2-fluorobenzamide] | 18.2 nM |
| CC(F)(F)CNC(=O)c1cccc(-c2ccc3nc(Nc4ccccc4C#N)nn3c2)c1F [Example 11.066, 3-{2-[(2-cyanophenyl)amino][1,2,4]triazolo[1,5-a]pyridin-6-yl}-N-(2,2-difluoropropyl)-2-fluorobenzamide] | 26.7 nM |
| N#Cc1ccccc1Nc1nc2ccc(-c3cccc(C(=O)NCCC(F)(F)F)c3F)cn2n1 [Example 11.067, 3-{2-[(2-cyanophenyl)amino][1,2,4]triazolo[1,5-a]pyridin-6-yl}-2-fluoro-N-(3,3,3-trifluoropropyl)benzamide] | 23.9 nM |
